How the values were obtained:
Experiment in all cases: relative viability (nuclei count vs DMSO), 5 days (fraction); higher = more cells survive
Midostaurin + Tozasertib = compound: CO[C@@H]1[C@H](N(C)C(=O)c2ccccc2)C[C@H]2O[C@]1(C)n1c3ccccc3c3c4c(c5c6ccccc6n2c5c31)C(=O)NC4 [Midostaurin] + Cc1cc(Nc2cc(N3CCN(C)CC3)nc(Sc3ccc(NC(=O)C4CC4)cc3)n2)n[nH]1 [Tozasertib] (partner 0.1 µM)
Procedure, shortened: (§1)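 Five library-drug doses in √10 steps were combined with a fixed anchor-drug dose, or a single drug was given alone, by pin tool to lung cancer cell lines in 1536-well plates the day after seeding. Nuclei were stained and counted after 5 days. Relative viability is the nuclei count in treated wells over that in vehicle wells, taken as the median of duplicate plates.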

[1] = compound: COc1cc(-c2nn([C@H]3CC[C@H](N4CCN(C(C)=O)CC4)CC3)c3ncnc(N)c23)ccc1NC(=O)c1cc2ccccc2n1C + CCNC(=O)c1noc(-c2cc(C(C)C)c(O)cc2O)c1-c1ccc(CN2CCOCC2)cc1 [Luminespib] (partner 0.01 µM)
Procedure, shortened: as §1

Midostaurin + AZD7762 = compound: CO[C@@H]1[C@H](N(C)C(=O)c2ccccc2)C[C@H]2O[C@]1(C)n1c3ccccc3c3c4c(c5c6ccccc6n2c5c31)C(=O)NC4 [Midostaurin] + NC(=O)Nc1cc(-c2cccc(F)c2)sc1C(=O)N[C@H]1CCCNC1 [AZD7762] (partner 0.2 µM)
Procedure, shortened: as §1

[2] = compound: COc1cc(-c2nn([C@H]3CC[C@H](N4CCN(C(C)=O)CC4)CC3)c3ncnc(N)c23)ccc1NC(=O)c1cc2ccccc2n1C + Cc1nc(NC(=O)N2CCC[C@H]2C(N)=O)sc1-c1ccnc(C(C)(C)C(F)(F)F)c1 [Alpelisib] (partner 2 µM)
Procedure, shortened: as §1

Midostaurin + OSI-027 = compound: CO[C@@H]1[C@H](N(C)C(=O)c2ccccc2)C[C@H]2O[C@]1(C)n1c3ccccc3c3c4c(c5c6ccccc6n2c5c31)C(=O)NC4 [Midostaurin] + COc1cccc2cc(-c3nc([C@H]4CC[C@H](C(=O)O)CC4)n4ncnc(N)c34)[nH]c12 [OSI-027] (partner 0.5 µM)
Procedure, shortened: as §1

Cell Line | relative viability (Midostaurin + Tozasertib; first compound 0.01 µM) | relative viability (Midostaurin + Tozasertib; first compound 0.03162 µM) | relative viability (Midostaurin + Tozasertib; first compound 0.1 µM) | relative viability (Midostaurin + Tozasertib; first compound 0.3162 µM) | relative viability ([1]; first compound 0.0128 µM) | relative viability ([1]; first compound 0.04048 µM) | relative viability ([1]; first compound 0.128 µM) | relative viability ([1]; first compound 1.28 µM) | relative viability (Midostaurin + AZD7762; first compound 0.01 µM) | relative viability (Midostaurin + AZD7762; first compound 0.03162 µM) | relative viability (Midostaurin + AZD7762; first compound 0.1 µM) | relative viability (Midostaurin + AZD7762; first compound 0.3162 µM) | relative viability ([2]; first compound 0.0128 µM) | relative viability ([2]; first compound 0.04048 µM) | relative viability ([2]; first compound 0.128 µM) | relative viability ([2]; first compound 1.28 µM) | relative viability (Midostaurin + OSI-027; first compound 0.01 µM) | relative viability (Midostaurin + OSI-027; first compound 0.03162 µM) | relative viability (Midostaurin + OSI-027; first compound 0.1 µM) | relative viability (Midostaurin + OSI-027; first compound 0.3162 µM)
NCI-H2126 | 0.861 | 0.8 | 0.844 | 0.857 | 0.947 | 0.957 | 0.844 | 0.648 | 0.95 | 0.926 | 0.995 | 1.03 | 0.757 | 0.858 | 0.746 | 0.536 | 0.808 | 0.545 | 0.685 | 0.666
NCI-H3122 | 0.365 | 0.283 | 0.386 | 0.336 | 0.0938 | – | 0.0759 | 0.069 | 0.981 | 0.908 | 0.962 | 1.06 | 0.753 | – | 0.772 | 0.537 | 0.932 | 0.492 | 1.06 | 1.41
NCI-H1975 | 0.732 | 0.763 | 0.716 | 0.37 | 0.249 | 0.186 | 0.159 | 0.123 | 0.818 | 0.756 | 0.673 | 0.654 | 0.659 | 0.757 | 0.547 | 0.257 | 0.784 | 0.838 | 0.752 | 0.607
SW 1573 | 0.177 | 0.187 | 0.173 | 0.157 | 0.225 | 0.229 | 0.231 | 0.42 | – | – | – | – | 0.788 | 0.508 | 0.695 | 0.509 | 0.619 | 0.82 | 0.581 | 0.748
NCI-H2009 | 0.711 | 0.707 | 0.563 | 0.426 | 1.1 | 1.14 | 1.04 | 1.08 | – | – | – | – | 1.15 | 1.2 | 1.16 | 1.08 | 0.542 | 0.522 | 0.453 | 0.426
COR-L23 | 0.204 | 0.198 | 0.166 | 0.152 | 0.713 | 0.667 | 0.688 | 0.736 | – | – | – | – | 0.749 | 0.97 | 0.682 | 0.682 | 0.706 | 0.681 | 0.795 | 0.802
HCC-78 | 0.421 | 0.422 | 0.408 | 0.366 | – | – | – | – | 0.682 | 1.09 | 0.644 | 0.483 | 0.376 | 0.361 | 0.322 | 0.281 | 0.432 | 0.332 | 0.381 | 0.299
NCI-H1299 | – | – | – | – | – | – | – | – | – | – | – | – | 1.1 | 1.11 | 1.06 | 1.08 | – | – | – | –
NCI-H1650 | 0.391 | 0.359 | 0.357 | 0.342 | 0.162 | 0.194 | 0.19 | 0.181 | – | – | – | – | – | – | – | – | 0.574 | 0.71 | 0.647 | 0.597
COR-L 105 | 0.404 | 0.356 | 0.341 | 0.313 | 0.641 | 0.707 | 0.737 | 0.479 | – | – | – | – | 1.13 | 1.09 | 1.08 | 0.531 | 0.793 | 0.548 | 0.607 | 0.551
ChaGo-K-1 | 0.312 | 0.214 | 0.229 | 0.219 | 0.721 | 0.615 | 0.616 | 0.679 | 0.895 | 0.837 | 0.677 | 0.946 | – | – | – | – | 0.645 | 0.737 | 0.671 | 0.599
NCI-H2228 | 0.254 | 0.284 | 0.265 | 0.216 | 0.184 | 0.145 | 0.141 | 0.115 | – | – | – | – | 0.774 | 0.793 | 0.692 | 0.45 | 0.652 | 0.603 | 0.687 | 0.703
SW 900 | 0.578 | 0.525 | 0.59 | 0.466 | 0.178 | 0.175 | 0.184 | 0.159 | 0.755 | 0.684 | 0.617 | 0.476 | – | – | – | – | 0.541 | 0.484 | 0.75 | 0.478
NCI-H661 | 0.362 | 0.323 | 0.364 | 0.376 | 0.901 | 1.08 | 0.948 | 0.946 | – | – | – | – | 0.418 | 0.526 | 0.729 | 0.376 | 0.74 | 0.638 | 0.719 | 0.607
NCI-H1563 | – | – | – | – | 0.535 | 0.55 | 0.525 | 0.5 | – | – | – | – | 0.876 | 0.918 | 0.998 | 0.865 | 0.766 | 0.727 | 0.72 | 0.745
A549 | – | – | – | – | – | – | – | – | – | – | – | – | 0.739 | 0.774 | 0.862 | 0.57 | – | – | – | –
NCI-H2342 | 0.57 | 0.487 | 0.551 | 0.538 | 0.723 | 0.717 | 0.87 | 0.61 | 0.558 | 0.503 | 0.489 | 0.451 | – | – | – | – | 0.667 | 0.619 | 0.658 | 0.74
NCI-H1623 | 0.445 | 0.481 | 0.433 | 0.446 | 0.473 | 0.514 | 0.451 | 0.433 | – | – | – | – | – | – | – | – | 0.455 | 0.471 | 0.465 | 0.561
NCI-H522 | 0.557 | 0.607 | 0.629 | 0.621 | 1.25 | 1.21 | 1.3 | 0.971 | 0.86 | 0.833 | 0.864 | 0.91 | – | – | – | – | 0.712 | 0.729 | 0.668 | 0.766
IA-LM | – | – | – | – | – | – | – | – | – | – | – | – | 0.838 | 0.803 | 0.783 | 0.84 | – | – | – | –
EBC-1 | – | – | – | – | – | – | – | – | – | – | – | – | 0.823 | 0.785 | 0.723 | 0.732 | – | – | – | –

Reference: the supplement of paper PMC10307832
